Experiments:
[1] = test system: ΔF508-CFTR; format: cell-based, human; conditions: rescreen with repropagated Ad-siRNA; ΔF508-CFTR and YFP adenovirus; 10 microM forskolin and 100 microM genistein; threshold −2
Method: Accordingly, an assay to monitor CFTR-halide flux by using a reporter protein, halide-sensitive fluorescent protein YFP, is developed to measure the functional activity of CFTR. Cells expressing this reporter protein show enhanced fluorescence quenching of YFP by extracellular isomolar iodide solutions in the presence of activated CFTR. This is caused by the increased flux of iodide across the plasma membrane by CFTR. The fluorescence quenching is measured on a fluorescence plate reader.
Human lung epithelial cells are isolated from a ΔF508-CFTR patient, obtained after informed consent. These cells are stably transfected with ΔF508-CFTR expression plasmids and are named CFBE41o-cells (Gruenert et al., 2004). […]
CFBE41o-cells are transduced with the YFP fluorescent halide reporter adenoviral vector at a VPU of 2000 viral particles per cell, together with adenoviral vectors expressing ΔF508-CFTR, or as a positive control the wild-type CFTR. […] Plates are read in a fluorescent plate reader, equipped with injectors for the delivery of reagents to the well (Perkin-Elmer Envision 2102). Each well is read for 2 seconds at 485/530 nm (excitation/emission) prior to the addition of 110 microliter iodide-containing buffer (137 mM NaI, 2.7 mM KCl, 10 mM Na2HPO4, 1.76 mM KH2PO4 at pH 7.4). Fluorescent reading is continued for an additional 12 sec, sampling every 200 msec. […]

[2] = test system: ΔF508 CFTR; assay: Cell-surface expression of ΔF508 CFTR by cell-surface biotinylation and Western blot in CFBE41o-cells; format: cell-based, human
Method: This analysis allows a more quantitative measurement of the levels of restoration of cell-surface expressed ΔF508 CFTR, as well as the glycosylation status of the ΔF508 CFTR protein (Cheng et al., 1990). A preferred effect of a HIT would be increased cell-surface expression of ΔF508 CFTR, and especially “band C” (Cheng et al., 1990), fully glycosylated ΔF508 CFTR. The assay to measure cell surface expression of ΔF508-CFTR is performed in the following fashion: CFBE41o-cells are seeded in 60 mm cell culture dishes coated with 0.1 mg/mL bovine serum albumin (BSA), 0.03 mg/mL bovine collagen type 1 and 0.01 mg/mL human fibronectin. CFBE41o-cells are cultured in MEM containing 10% Fetal Bovine Serum, 2 mM glutamine, 100 IU/mL penicillin, 0.1 mg/mL streptomycine sulfate and 0.5 mg/mL hygromycin B at 37° C., 5% CO2 in a humidified chamber. One day after seeding, an aliquot of the Ad-siRNA is applied to each well. […] The supernatant is analyzed on Western blots (BioRad Criterion XT gels, 3-8% polyacrylamide #3450131). […] Quantification of the cell surface expression of ΔF508 CFTR was performed with Biorad Quantity One software.
Positive and negative controls for the biotinylation include incubation of cell culture at 27° C. for 48 hrs to correct misfolding and trafficking of ΔF508 CFTR, and omission of Ad-siRNAs respectively. No signal is detected when the biotinylation reagent was omitted. […]
Target sequence in this assay (P13569 other isoform, or with tags, fused parts or gaps DEL508-508): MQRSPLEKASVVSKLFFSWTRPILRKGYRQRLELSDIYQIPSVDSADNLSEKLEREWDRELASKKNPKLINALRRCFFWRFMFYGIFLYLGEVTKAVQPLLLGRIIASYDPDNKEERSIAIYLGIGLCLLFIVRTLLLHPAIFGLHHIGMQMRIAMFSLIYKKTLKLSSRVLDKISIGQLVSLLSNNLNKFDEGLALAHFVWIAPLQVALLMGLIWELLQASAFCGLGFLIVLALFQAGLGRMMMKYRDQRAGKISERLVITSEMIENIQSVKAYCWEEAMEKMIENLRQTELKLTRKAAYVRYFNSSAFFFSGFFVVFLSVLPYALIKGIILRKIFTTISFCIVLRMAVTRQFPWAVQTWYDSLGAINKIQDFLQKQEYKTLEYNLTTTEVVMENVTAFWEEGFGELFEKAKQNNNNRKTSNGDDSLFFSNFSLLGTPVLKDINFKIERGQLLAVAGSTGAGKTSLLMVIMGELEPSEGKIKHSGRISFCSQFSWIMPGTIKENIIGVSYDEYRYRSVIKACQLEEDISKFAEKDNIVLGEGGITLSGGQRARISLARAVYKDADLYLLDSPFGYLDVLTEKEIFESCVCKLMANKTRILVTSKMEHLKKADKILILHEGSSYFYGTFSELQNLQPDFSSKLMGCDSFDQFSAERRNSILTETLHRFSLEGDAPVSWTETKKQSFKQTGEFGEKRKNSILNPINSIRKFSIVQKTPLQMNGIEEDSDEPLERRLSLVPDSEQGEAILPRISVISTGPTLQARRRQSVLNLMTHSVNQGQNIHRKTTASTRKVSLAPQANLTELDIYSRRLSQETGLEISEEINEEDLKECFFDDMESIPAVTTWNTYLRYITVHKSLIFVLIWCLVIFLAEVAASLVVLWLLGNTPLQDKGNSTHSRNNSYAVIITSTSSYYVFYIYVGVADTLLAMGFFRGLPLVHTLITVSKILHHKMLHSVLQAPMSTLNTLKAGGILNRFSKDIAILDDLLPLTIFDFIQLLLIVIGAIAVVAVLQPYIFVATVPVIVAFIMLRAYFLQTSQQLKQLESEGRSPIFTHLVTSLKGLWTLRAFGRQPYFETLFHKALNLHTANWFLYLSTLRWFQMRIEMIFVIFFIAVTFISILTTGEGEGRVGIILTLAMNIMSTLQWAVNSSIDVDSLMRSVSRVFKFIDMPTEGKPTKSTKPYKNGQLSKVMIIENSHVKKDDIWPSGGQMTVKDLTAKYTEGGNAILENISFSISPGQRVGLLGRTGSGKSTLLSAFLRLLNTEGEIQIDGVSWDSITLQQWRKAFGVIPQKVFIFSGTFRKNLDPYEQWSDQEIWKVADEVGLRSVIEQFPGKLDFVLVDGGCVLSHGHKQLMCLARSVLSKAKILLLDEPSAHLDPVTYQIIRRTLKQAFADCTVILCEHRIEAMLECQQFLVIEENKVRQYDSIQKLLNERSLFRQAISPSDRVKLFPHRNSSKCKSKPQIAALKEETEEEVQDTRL

[3] = test system: ΔF508 CFTR; assay: Trans-epithelial chloride flux (short-circuit current, Ussing chamber) in CFTR ΔF508 homozygous primary bronchial epithelial cells; conditions: primary CF bronchial epithelial cell culture on filter support; Ad-siRNA knockdown; forskolin 10 μM, genistein 50 μM
Source text: A further validation of the correction of ΔF508 CFTR is the correction of trans-epithelial chloride transport in primary bronchial epithelial cell cultures from a CF patient, grown in a filter support. […] A standard drug addition protocol (Devor et al., 2000) can be used to detect transepithelial currents due to CFTR. Short-circuit current (Isc) across HBE primary cultures can be measured as described (Myerburg et al., 2006; Myerburg et al., 2008). Cells cultured on filter supports are mounted in modified Ussing chambers, and the cultures are continuously short-circuited with an automatic voltage clamp (Physiological Instruments, San Diego, Calif.). The basolateral bathing solution composition is: 120 mM NaCl, 25 mM NaHCO3, 3.3 mM KH2PO4, 0.8 mM K2HPO4, 1.2 mN MgCl2, 1.2 mM CaCl2, and 10 mM glucose. A basal-to-apical Cl gradient can be imposed by reducing the NaCl concentration of the apical bathing solution by replacing NaCl with equimolar Na-gluconate. The chambers are maintained at 37° C. and gassed continuously with a mixture of 95% O2-5% CO2 which fixed the pH at 7.4. Following a 5 min equilibration period, the baseline Isc is recorded. Sodium currents are blocked by addition of the epithelial sodium channel (ENaC) blocker, amiloride (10 μM), to the apical bath. […]

ΔF508-CFTR, sequence (P13569 other isoform, or with tags, fused parts or gaps DEL508-508): as above

UGT3A2: Ad-siRNA (adenovirus-expressed shRNA) knocking down UGT3A2; KD sequences SEQ ID NO: 56, 57; SEQ 57 used in Table 6 (guide AACATGGTCCGAGTAGAAG; listed as Homo sapiens)
Forskolin-Genistein induced halide flux in CFBE41o- [1]: −5.485 fold stdev from the mean of the negative controls | CFTRΔF508 cell surface expression ([2]; CFBE41o- cell culture upon TARGET Ad-siRNA, relative to E-cadherin signal, without Ad-siRNAs set at 0, 27° C. for 48 hrs set at 1): 0.906 | C-band/B-band ratio ([2]; cell-surface ΔF508 CFTR, band C fully glycosylated / band B core glycosylated, CFBE41o-): 0.278 | Forskolin-Genistein induced chloride flux in CF primary epithelial cells compared to control cells (non-CF) [3]: 22.9%
